Measurements taken from patent US8940286B2, “Urate transporter, as well as method and kit for evaluating urate transport-related disease factor and inflammation-related disease factor, and test sample and drug” (The University of Tokyo, priority 2009, dated 2015).
Counter-ions that a name gives are not always drawn.

T1: ABCG2 (Homo sapiens, UniProt Q9UNQ0)
T1 sequence (Q9UNQ0 1-655): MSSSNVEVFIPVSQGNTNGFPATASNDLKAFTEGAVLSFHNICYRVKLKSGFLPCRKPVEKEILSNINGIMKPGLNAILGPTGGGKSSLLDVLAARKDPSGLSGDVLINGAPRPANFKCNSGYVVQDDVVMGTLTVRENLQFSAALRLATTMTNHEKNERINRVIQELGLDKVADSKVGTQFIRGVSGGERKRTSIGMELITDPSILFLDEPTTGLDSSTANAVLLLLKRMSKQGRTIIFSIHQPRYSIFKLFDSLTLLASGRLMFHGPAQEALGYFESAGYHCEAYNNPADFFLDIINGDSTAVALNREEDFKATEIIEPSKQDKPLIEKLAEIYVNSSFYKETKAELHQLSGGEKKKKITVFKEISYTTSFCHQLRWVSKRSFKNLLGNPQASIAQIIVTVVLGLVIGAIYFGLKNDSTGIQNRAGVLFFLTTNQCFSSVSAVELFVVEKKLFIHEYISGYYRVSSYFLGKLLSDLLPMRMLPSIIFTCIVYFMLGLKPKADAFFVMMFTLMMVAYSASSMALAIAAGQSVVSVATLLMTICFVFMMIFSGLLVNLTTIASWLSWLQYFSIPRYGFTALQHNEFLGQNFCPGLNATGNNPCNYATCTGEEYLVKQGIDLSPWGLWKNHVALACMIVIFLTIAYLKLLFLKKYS

T2: mouse Abcg2 (Mus musculus, UniProt Q7TMS5)
T2 construct: expressed in transfected cells; host or cells: HEK293 (transient transfection, myc-mAbcg2/pcDNA3.1(+)); cell membrane vesicles
T2 sequence (Q7TMS5 1-657): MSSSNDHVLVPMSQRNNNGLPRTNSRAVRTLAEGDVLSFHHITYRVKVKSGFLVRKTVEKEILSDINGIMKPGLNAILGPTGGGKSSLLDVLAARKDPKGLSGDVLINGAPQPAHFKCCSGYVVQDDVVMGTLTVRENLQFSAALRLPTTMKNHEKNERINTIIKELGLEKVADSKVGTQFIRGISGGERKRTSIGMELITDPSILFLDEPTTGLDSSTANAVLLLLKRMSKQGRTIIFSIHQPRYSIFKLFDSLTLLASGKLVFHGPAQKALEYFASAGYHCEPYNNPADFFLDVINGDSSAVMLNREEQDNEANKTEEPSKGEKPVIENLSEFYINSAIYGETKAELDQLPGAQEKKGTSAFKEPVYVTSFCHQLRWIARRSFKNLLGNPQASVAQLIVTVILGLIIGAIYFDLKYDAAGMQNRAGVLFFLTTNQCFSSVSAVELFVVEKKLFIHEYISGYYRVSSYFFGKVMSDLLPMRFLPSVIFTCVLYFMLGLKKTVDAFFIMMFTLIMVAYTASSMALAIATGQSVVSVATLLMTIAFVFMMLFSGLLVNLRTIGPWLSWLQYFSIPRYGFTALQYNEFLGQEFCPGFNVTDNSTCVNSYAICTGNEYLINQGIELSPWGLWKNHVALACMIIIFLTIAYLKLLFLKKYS


Columns and labels:
ABCG2 [1] = molecular target: T1, ABCG2; experiment: inhibition of ABCG2-mediated [3H]estrone-3-sulfate transport in membrane vesicles; details: [3H]ES 500 nM, vesicle transport assay, HEK293 membrane vesicles
Description: Wild-type ABCG2 cDNA was inserted into the Nhe I site and Apa I site of pcDNA3.1(+) vector plasmid (Invitrogen, Carlsbad, Calif.), with a myc-tag sequence attached at the 5′ end. To prepare membrane vesicles, HEK293 cells were transiently transfected with an expression vector for ABCG2 or an empty vector using FuGENE6 (Roche Diagnostics, Indianapolis, Ind.). Forty-eight hours later, cells were harvested and the membrane vesicles were isolated using a standard method. The uptake study of [^3H]estrone-3-sulfate (ES, 500 nM) and [^14C]urate (28 μM) was performed.
Using membrane vesicles prepared from ABCG2-expressing cells, the inhibitory effect of urate on ABCG2-mediated transport of its typical substrate, ES (estrone-3-sulfate) was examined.
The inhibitory effect on the transport of [^3H]estrone-3-sulfate (ES, 500 nM), a typical substrate of ABCG2 was examined using the vesicle transport assay system.

ABCG2 [2] = molecular target: T1, ABCG2; details: typical ABCG2 substrates, low capacity; read-out: Km value of transport by ABCG2; cited from earlier work
mouse Abcg2 = molecular target: T2, mouse Abcg2; experiment: [14C]urate transport in mouse Abcg2-expressing membrane vesicles; type: biochemical; details: uric acid 250 μM to 4 mM, cell membrane vesicles
Description: A mouse Abcg2 expression vector was constructed by amplifying a cDNA of mouse Abcg2 with a myc tag sequence attached to the N-terminus, integrating it into pGEM T-Easy Vector (Promega, Madison, Wis.), and then integrating it into a Not I site of a pcDNA3.1(+) vector via a restriction enzyme treatment.
Also, in order to confirm whether or not the mouse Abcg2 transports urate in the same manner as in human ABCG2, HEK293 cells into which the mouse myc-Abcg2 expression vector was transiently introduced were recovered, and cell membrane vesicles were prepared.
Transport experiments were performed using cell membrane vesicles and using radioisotope-labeled uric acid as a substrate. As a result, it was confirmed that the mouse Abcg2 also transports uric acid in the same manner as in human ABCG2. Also, transport experiments were performed in uric acid concentrations of 250 μM, 500 μM, 1 mM, 1.5 mM, 2 mM, and 4 mM, respectively. […] Whereby, it was shown that mouse Abcg2 is a high-capacity urate transporter which can function even in the presence of a high concentration of uric acid.

[3] = substrate: O=c1[nH]c(=O)c2[nH]c(=O)[nH]c2[nH]1; experiment: ATP-dependent [14C]urate transport in ABCG2-expressing membrane vesicles; type: biochemical, human; details: other: membrane vesicles from ABCG2-expressing HEK293 cells
Description: As shown in FIG. 3 (A), an ATP-dependent urate transport was detected in ABCG2-expressing vesicles but not in control vesicles. This is the first evidence of a direct high-capacity urate transport via ABCG2. Because of a mild inhibitory effect on the ES transport, urate was assumed to be a high-capacity substrate of ABCG2. Indeed, as shown in FIG. 3 (B), ABCG2-mediated urate transport scarcely reached saturation at concentrations of 1 mM or less.
Typical ABCG2 substrates, e.g., sulfate conjugates such as ES, 4-methylumbelliferone sulfate, and E3040 sulfate, are transported by ABCG2 with low capacity (Km value of about 20 μM).

| inhibitory effect on the transport of [3H]estrone-3-sulfate (ABCG2 [1]) | Molecule | Km (ABCG2 [2]) | other results |
| --- | --- | --- | --- |
| inhibition | Cc1cn([C@H]2C[C@H](N=[N+]=[N-])[C@@H](CO)O2)c(=O)[nH]c1=O [AZT, 3′-azido-3′-deoxythymidine] |  |  |
| inhibition | C[C@]12CC[C@@H]3c4ccc(OS(=O)(=O)O)cc4CC[C@H]3[C@@H]1CCC2=O [ES, estrone-3-sulfate] | ~20 µM |  |

Further lines, the molecule ahead of its results:

| Molecule | inhibitory effect on the transport of [3H]estrone-3-sulfate (ABCG2 [1]) | Km (ABCG2 [2]) | other results |
| --- | --- | --- | --- |
| CNc1nc2c(Cc3cccnc3)c(C)c(OS(=O)(=O)O)c(C)c2s1 [E3040 sulfate] |  | ~20 µM |  |
| Cc1cc(=O)oc2cc(OS(=O)(=O)O)ccc12 [4-methylumbelliferone sulfate] |  | ~20 µM |  |
| O=c1[nH]c(=O)c2[nH]c(=O)[nH]c2[nH]1 [urate] |  |  | saturability of urate transport via mouse Abcg2 (mouse Abcg2): no saturability |
| ABCG2 (Homo sapiens) (protein, expressed in transfected cells; host or cells: HEK293 (transient transfection, pcDNA3.1(+)); isolated membrane vesicles) MSSSNVEVFIPVSQGNTNGFPATASNDLKAFTEGAVLSFHNICYRVKLKSGFLPCRKPVEKEILSNINGIMKPGLNAILGPTGGGKSSLLDVLAARKDPSGLSGDVLINGAPRPANFKCNSGYVVQDDVVMGTLTVRENLQFSAALRLATTMTNHEKNERINRVIQELGLDKVADSKVGTQFIRGVSGGERKRTSIGMELITDPSILFLDEPTTGLDSSTANAVLLLLKRMSKQGRTIIFSIHQPRYSIFKLFDSLTLLASGRLMFHGPAQEALGYFESAGYHCEAYNNPADFFLDIINGDSTAVALNREEDFKATEIIEPSKQDKPLIEKLAEIYVNSSFYKETKAELHQLSGGEKKKKITVFKEISYTTSFCHQLRWVSKRSFKNLLGNPQASIAQIIVTVVLGLVIGAIYFGLKNDSTGIQNRAGVLFFLTTNQCFSSVSAVELFVVEKKLFIHEYISGYYRVSSYFLGKLLSDLLPMRMLPSIIFTCIVYFMLGLKPKADAFFVMMFTLMMVAYSASSMALAIAAGQSVVSVATLLMTICFVFMMIFSGLLVNLTTIASWLSWLQYFSIPRYGFTALQHNEFLGQNFCPGLNATGNNPCNYATCTGEEYLVKQGIDLSPWGLWKNHVALACMIVIFLTIAYLKLLFLKKYS |  |  | Km [3]: 8240 ± 1440 µM; Vmax [3]: 6.96 ± 0.89 nmol/min/mg (protein) |
